Patent US8377455B2, “Biosurfactant composition produced by a new Bacillus licheniforms strain, uses and products thereof” (priority 2008, dated 2013)
Like-named read-outs stand apart in the source and are kept apart here.

Key:
[1] = test system: S. aureus ATCC 25923 biofilm; assay: High-throughput susceptibility testing of CBD biofilm to biocides/metals with or without V9T14; type: cell-based, Staphylococcus aureus; conditions: 8 h exposure
Experimental: (§1) E. coli CFT073 and E. coli O157:H7 were grown on Luria Bertani agar (LB, EMD Chemicals Inc.), P. aeruginosa PA14 and S. aureus were grown on TSB agar. Susceptibility testing of metals was performed in Minimal Salts Vitamins Glucose (MSVG) according to Teitzel and Parsek (2003), while Polycide susceptibility testing was performed in Phosphate Buffered Saline (PBS).
(§2) AgNO3 (Sigma) and CuSO4 (Sigma) were dissolved in double distilled water (ddH2O) to 150 mM and 500 mM respectively. Polycide was diluted in PBS to 25%. Solutions were sterile filtered and stored at 4° C. Serial two-fold dilutions were performed to create the challenge plate.
(§3) Biofilms were grown in the Calgary Biofilm Device (CBD) as described above. Starting from cryogenic stock, the strain was streaked out twice on TSA, and an inoculum was prepared by suspending colonies from the secondary agar subculture in 0.9% saline to match a 1.0 McFarland standard. This standard inoculum was diluted 1/30 in LB broth.
150 μL of this inoculum was transferred into each well of a 96-well plate, and the sterile peg lid of the CBD was inserted into the plate. […]
Following this period of incubation, biofilms were rinsed once with 0.9% saline (200 μL/well) to remove loosely adherent planktonic cells. Biofilm formation was evaluated by breaking off four pegs from each device after it has been rinsed. […]

[2] = test system: P. aeruginosa PA14 biofilm; type: cell-based, Pseudomonas aeruginosa
Experimental: as §1, §2, §3
(§4) 150 μL of this inoculum was transferred into each well of a 96-well plate, and the sterile peg lid of the CBD was inserted into the plate. The inoculated device was then incubated at 125 rpm, for 24 h at 37° C. and 95% relative humidity. In an alternative set of experiments, biofilms were grown for 48 h before silver exposure and spent medium was changed with fresh medium after 24 h.
Following this period of incubation, biofilms were rinsed once with 0.9% saline (200 μL/well) to remove loosely adherent planktonic cells. Biofilm formation was evaluated by breaking off four pegs from each device after it has been rinsed. Biofilms were disrupted from pegs into 200 μL/well of LB supplemented with 1% Tween 20 using an ultrasonic cleaner for a period of 10 min (Aquasonic model 250T, VWR Scientific, Mississauga, Canada) as described above. The disrupted biofilms were serially diluted in 0.9% saline and plated on LB agar for viable cell counting. An initial set of quality control assays were carried out to ascertain that the strain used in this study formed equivalent biofilm on the CBD pegs as described in Harrison (2008). […]

E. coli CFT073 biofilm = type: cell-based, Escherichia coli; conditions: for concentration for eradication of biofilm: 24 h exposure
Experimental: as §1
Extracted V9T14 biosurfactant was stored under the chemical hood providing solvent evaporation until dryness. The biosurfactant powder was homogenized using a porcelain mortar and a pestle. V9T14 was dissolved in PBS and pH was adjusted to 7.5 with 1 N NaOH. Volume was adjusted to match a final concentration of 5000 μg/mL.
as §2, §3, §4
Following this period of incubation, biofilms were rinsed once with 0.9% saline (200 μL/well) to remove loosely adherent planktonic cells. Biofilm formation was evaluated by breaking off four pegs from each device after it has been rinsed. Biofilms were disrupted from pegs into 200 μL/well of LB supplemented with 1% Tween 20 using an ultrasonic cleaner for a period of 10 min (Aquasonic model 250T, VWR Scientific, Mississauga, Canada) as described above. The disrupted biofilms were serially diluted in 0.9% saline and plated on LB agar for viable cell counting. An initial set of quality control assays were carried out to ascertain that the strain used in this study formed equivalent biofilm on the CBD pegs as described in Harrison (2008).
(§5) The challenge plate of biocides, antibiotics and biosurfactant was made in a 96-well plate. Biocides were serially two-fold diluted in PBS and V9T14 biosurfactant was added to each well at the final concentration of 5 μL/mL. Antibiotics were similarly diluted in Muller-Hinton broth, while metals were diluted in MSVG.
Biofilms that have been grown on lids of the CBD and rinsed once in 0.9% saline were inserted in the challenge plates. Following the exposure time at 37° C., biofilms were rinsed once with 0.9% saline (200 μL/well) and then placed in a microtiter “recovery” plate that contained 200 μL/well of neutralizing medium (TSB supplemented with 1% Tween 20, 2.0 g/L reduced glutathione, 1.0 g/L L-histidine, 1.0 g/L L-cysteine). The recovery plate was sonicated for a period of 10 min (Aquasonic model 250T, VWR Scientific, Mississauga, Canada). The disrupted biofilms were serially diluted in 0.9% saline and plated on the appropriate agar medium for viable cell counting. Plates were then incubated at 37° C. overnight and finally enumerated.

[3] = test system: planktonic E. coli CFT073; type: cell-based, Escherichia coli
Experimental: as §5, with “MSVG. When prepared, each challenge plate had 7 sterility control, 8 growth control, 11 wells containing 5 μL/mL of V9T14 biosurfactant, 11 different concentrations of single biocide (or metals) and 11 different concentrations of biocide (or metals) associated with 5 μL/mL of V9T14 biosurfactant.” for “MSVG.”
To define MBC of biocides, recovery plates were incubated at 37° C. for 24-48 h and the adsorbance (OD650 nm) was read in a microtiter plate reader.

Compound	maximum reduction of viable cell count with V9T14 [1]	reduction of the concentration needed to bring biofilm below detectable count when V9T14 present [1]	maximum increase of killing with V9T14 [2]	enhancement of killing activity by presence of V9T14 (E. coli CFT073 biofilm; 2 h exposure, 3.750 mM silver, 5 μg/mL V9T14)	enhancement of killing activity by presence of V9T14 (E. coli CFT073 biofilm; 8 h exposure, 0.015 mM silver (p=0.03))	silver concentration needed with V9T14 relative to silver alone (fold less) (E. coli CFT073 biofilm; biofilm reduced below detection limit) [fold]	concentration for eradication of biofilm (E. coli CFT073 biofilm; silver alone) [mM]	concentration for eradication of biofilm (E. coli CFT073 biofilm; silver with 5 μg/mL V9T14 added) [mM]	increase of killing efficacy by V9T14 (E. coli CFT073 biofilm; solution prepared 48 h before, 4 h exposure (p=0.0007))	metal concentration needed with V9T14 relative to silver alone (fold less) ([3]; 5 μg/mL V9T14, 24 h) [fold]	concentration from which complete inhibition of growth was observed ([3]; silver alone, 24 h) [mM]	concentration required to eradicate the biofilm ([2]; silver alone, 8 h exposure) [mM]	concentration required to eradicate the biofilm ([2]; silver with 5 μg/mL V9T14, 8 h exposure) [mM]
O=S(=O)([O-])[O-].[Cu+2] [copper, cupric sulfate]	about 2.4 log10	about 95%	about 2.2 log10	–	–	–	–	–	–	–	–	–	–
O=[N+]([O-])[O-].[Ag+] [silver, silver nitrate]	–	–	–	about 0.6 log10	about 3.2 log10	258	7.5	0.029	about 2.3 log10	64	7.5	0.469	0.117
